Counter-ions that a name gives are not always drawn. Like-named read-outs stand apart in the source and are kept apart here.
Legend:
MAO-A = target: T1, MAO-A (Homo sapiens, UniProt P21397); experiment: MAO-A biochemical assay (MAO-Glo)
T1 construct: purchased Sigma-Aldrich M7316
T1 sequence (P21397 1-527): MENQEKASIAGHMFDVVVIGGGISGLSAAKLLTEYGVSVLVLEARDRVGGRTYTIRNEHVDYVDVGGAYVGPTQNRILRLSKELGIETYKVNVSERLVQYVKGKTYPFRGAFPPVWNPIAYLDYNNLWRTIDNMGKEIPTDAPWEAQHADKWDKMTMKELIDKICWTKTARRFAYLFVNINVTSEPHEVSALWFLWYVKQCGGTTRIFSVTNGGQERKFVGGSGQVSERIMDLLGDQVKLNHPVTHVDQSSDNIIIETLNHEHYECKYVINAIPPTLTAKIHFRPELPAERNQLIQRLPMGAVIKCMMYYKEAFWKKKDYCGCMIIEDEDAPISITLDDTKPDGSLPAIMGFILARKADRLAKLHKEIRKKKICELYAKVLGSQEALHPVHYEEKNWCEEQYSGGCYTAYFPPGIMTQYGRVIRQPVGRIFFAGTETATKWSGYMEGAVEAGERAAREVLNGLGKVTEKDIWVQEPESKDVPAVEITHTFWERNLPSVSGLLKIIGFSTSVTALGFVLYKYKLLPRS
Excerpt: (§1) The MAO-Glo™ Assay (commercially available from PROMEGA, #V1402) provides a sensitive method for the measurement of monoamine oxidase (MAO) activity (Valley, M. P. et al., 2006, Anal. Biochem. 359: 238-246) from a variety of tissues, biofluids or recombinant expressed or purified enzymes. As substrate a derivate of the beetle luciferin ((4S)-4,5-dihydro-2-(6-hydroxybenzothiazolyl)-4-thiazole-carboxylic acid) is used, which is oxidized at a primary amine moiety. After a spontaneous elimination and a catalyzed esterase reaction, the turnover of luciferin by the luciferase is recorded as a signal of MAO-A activity.
An aliquot of 3 μL of the compound dilution is added to a 384 well plate (Optiplate, PS, flat bottom F, black, PERKIN ELMER, #6007270) in a DMSO concentration of 1.025%.
A MAO-A enzyme aliquot (M7316, Sigma-Aldrich) is thawed on ice, diluted in reaction buffer to 1.25 mU/μL and added in a volume of 5 μL to the wells. After incubation for 20 minutes at 37° C., 2 μL of MAO substrate (dissolved in DMSO at 16 mM, diluted to 20 μM in assay buffer to obtain a final assay concentration of 4 μM) is added, mixed, and the mixture further incubated for 60 minutes at 37° C.
The turnover of the substrate is determined by the addition of 10 μL of the Detection Reagent mix which was generated by the addition of reconstitution buffer with esterase (PROMEGA, #V1402) to the luciferin detection reagent (PROMEGA, #V1402). After an incubation period of 20 minutes at 37° C., the luminescent signal is measured with a […], e.g. Envision 2104 Multilabel Reader (PERKIN ELMER).

[1] = target: T2, human AOC3 enzyme (recombinant CHO cells) (Homo sapiens, UniProt Q16853); experiment: AOC3 biochemical assay (MAO-Glo), human enzyme
T2 construct: expressed in transfected cells; host or cells: CHO cells
T2 sequence (Q16853 1-763): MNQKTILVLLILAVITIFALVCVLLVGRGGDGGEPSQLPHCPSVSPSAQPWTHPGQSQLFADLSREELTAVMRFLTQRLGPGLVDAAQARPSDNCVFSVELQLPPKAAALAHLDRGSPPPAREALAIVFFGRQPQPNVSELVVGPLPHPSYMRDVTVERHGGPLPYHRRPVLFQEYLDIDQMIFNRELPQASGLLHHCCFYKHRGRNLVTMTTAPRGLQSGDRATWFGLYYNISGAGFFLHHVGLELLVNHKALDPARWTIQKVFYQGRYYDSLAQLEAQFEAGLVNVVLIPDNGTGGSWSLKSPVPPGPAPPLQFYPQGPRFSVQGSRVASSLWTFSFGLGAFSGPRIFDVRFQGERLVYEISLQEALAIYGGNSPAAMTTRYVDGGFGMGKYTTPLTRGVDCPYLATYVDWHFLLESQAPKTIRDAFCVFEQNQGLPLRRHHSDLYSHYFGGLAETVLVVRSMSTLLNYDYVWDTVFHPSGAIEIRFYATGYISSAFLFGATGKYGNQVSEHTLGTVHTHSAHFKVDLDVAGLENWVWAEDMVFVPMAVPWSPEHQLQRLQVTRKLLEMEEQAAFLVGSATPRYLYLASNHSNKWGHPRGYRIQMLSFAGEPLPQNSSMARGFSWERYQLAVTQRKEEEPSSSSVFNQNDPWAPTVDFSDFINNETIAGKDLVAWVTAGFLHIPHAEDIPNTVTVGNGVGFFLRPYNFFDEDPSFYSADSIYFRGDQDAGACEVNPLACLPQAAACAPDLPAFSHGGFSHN
Excerpt: as §1, with “AOC3” for “MAO-A”
An aliquot of 3 μL of the compound dilution is added to a 384 well plate (Optiplate, PS, flat bottom, white, PERKIN ELMER, #6007290) with a final DMSO concentration of 6.6%. Recombinant CHO cells, overexpressing the human (1500 cells/well), mouse (1000 cells/well) or rat (500 cells/well) AOC3 enzyme are diluted in reaction buffer and added in a volume of 15 μL to the wells. After incubation for 20 minutes at 37° C., 2 μL of MAO substrate (dissolved in DMSO at 16 mM, adjusted to assay concentration in reaction buffer to a final assay concentration of 20 μM) is added and further incubated for 60 minutes at 37° C. The turnover of the substrate is determined by the addition of 20 μL of the detection-mix which was generated by the addition of reconstitution buffer with esterase (PROMEGA, #V1402) to the luciferin detection reagent (PROMEGA, #V1402). After an incubation period of 20 minutes, the luminescent signal is measured with Envision 2104 Multilabel Reader (PERKIN ELMER).

[2] = comparison table, read-out: IC50 MAO-A

CN(C)C(=O)C1CN(S(=O)(=O)c2ccc(OC/C(=C\F)CN)nc2)C1 [Example 25]
IC50 (MAO-A; IC50, read-out: MAO-A): > 50000 nM | IC50 ([1]; read-out: AOC3 IC50): 13 nM

NC/C(=C/F)COc1ccc(S(=O)(=O)N2CCC(O)(C(F)(F)F)CC2)cn1 [Example 42]
IC50 (MAO-A; IC50, read-out: MAO-A): 48200 nM | IC50 ([1]; read-out: AOC3 IC50): 6 nM

CC1(C(=O)O)CCN(S(=O)(=O)c2ccc(OC/C(=C\F)CN)nc2)CC1 [Example 47]
IC50 (MAO-A; IC50, read-out: MAO-A): > 50000 nM | IC50 ([1]; read-out: AOC3 IC50): 548 nM

CNC(=O)[C@@]12C[C@@H]1CN(S(=O)(=O)c1ccc(OC/C(=C\F)CN)nc1)C2 [Example 29]
IC50 (MAO-A; IC50, read-out: MAO-A): > 50000 nM | IC50 ([1]; read-out: AOC3 IC50): 8 nM

CNC(=O)[C@H]1[C@@H]2CN(S(=O)(=O)c3ccc(OC/C(=C\F)CN)nc3)C[C@@H]21 [Example 27]
IC50 (MAO-A; IC50, read-out: MAO-A): > 50000 nM | IC50 ([1]; read-out: AOC3 IC50): 5 nM

NC/C(=C/F)COc1ccc(S(=O)(=O)N2CCC(CC(=O)N3CC(O)C3)CC2)cn1 [Example 55]
IC50 (MAO-A; IC50, read-out: MAO-A): > 50000 nM | IC50 ([1]; read-out: AOC3 IC50): 17 nM

CNC(=O)[C@@H]1CCN(S(=O)(=O)c2ccc(OC/C(=C\F)CN)nc2)C1 [Example 14]
IC50 (MAO-A; IC50, read-out: MAO-A): > 50000 nM

COC(=O)C1CCN(S(=O)(=O)c2ccc(OC/C(=C\F)CN)nc2)CC1 [Example 34]
IC50 (MAO-A; IC50, read-out: MAO-A): 15200 nM | IC50 ([1]; read-out: AOC3 IC50): 4 nM

NC/C(=C/F)COc1ccc(S(=O)(=O)N2CCC(CC(N)=O)CC2)cn1 [Example 50]
IC50 (MAO-A; IC50, read-out: MAO-A): 29600 nM | IC50 ([1]; read-out: AOC3 IC50): 8 nM

NC/C(=C/F)COc1ccc(S(=O)(=O)N2CC[C@H](O)C2)cc1 [Reference compound B, reference compound]
IC50 (MAO-A; [2]): 7250 nM | IC50 ([1]; comparison table, read-out: IC50 AOC3): 6 nM

NC/C(=C/F)COc1ccc(S(=O)(=O)N2CC[C@H](C(N)=O)C2)cn1 [Example 39]
IC50 (MAO-A; IC50, read-out: MAO-A): > 50000 nM | IC50 ([1]; read-out: AOC3 IC50): 6 nM

CCNC(=O)CC1CCN(S(=O)(=O)c2ccc(OC/C(=C\F)CN)nc2)CC1 [Example 30]
IC50 (MAO-A; IC50, read-out: MAO-A): 21400 nM | IC50 ([1]; read-out: AOC3 IC50): 15 nM

CC1(O)CCN(S(=O)(=O)c2ccc(OC/C(=C\F)CN)nc2)CC1 [Example 41]
IC50 (MAO-A; IC50, read-out: MAO-A): > 50000 nM | IC50 ([1]; read-out: AOC3 IC50): 10 nM

NC/C(=C/F)COc1ccc(S(=O)(=O)N2C[C@@H]3[C@H](C2)[C@H]3C(=O)O)cn1 [Example 45, trans-3-[6-((Z)-2-Aminomethyl-3-fluoro-allyloxy)-pyridine-3-sulfonyl]-3-aza-bicyclo[3.1.0]hexane-6-carboxylic acid trifluoroacetate]
IC50 (MAO-A; IC50, read-out: MAO-A): > 50000 nM | IC50 ([1]; read-out: AOC3 IC50): 67 nM

CCNC(=O)C1(C)CCN(S(=O)(=O)c2ccc(OC/C(=C\F)CN)nc2)CC1 [Example 23]
IC50 (MAO-A; IC50, read-out: MAO-A): > 50000 nM | IC50 ([1]; read-out: AOC3 IC50): 28 nM

CC(F)(F)CNC(=O)CC1CCN(S(=O)(=O)c2ccc(OC/C(=C\F)CN)nc2)CC1 [Example 51]
IC50 (MAO-A; IC50, read-out: MAO-A): 20100 nM | IC50 ([1]; read-out: AOC3 IC50): 12 nM

CCNC(=O)C1CCN(S(=O)(=O)c2ccc(OC/C(=C\F)CN)nc2)CC1 [Example 15]
IC50 (MAO-A; IC50, read-out: MAO-A): > 50000 nM | IC50 ([1]; read-out: AOC3 IC50): 9 nM

NC/C(=C/F)COc1ccc(S(=O)(=O)N2CCC(C(=O)N3CCOCC3)CC2)cn1 [Example 3]
IC50 (MAO-A; IC50, read-out: MAO-A): > 50000 nM | IC50 ([1]; read-out: AOC3 IC50): 88 nM

CC(=O)NCC1CCN(S(=O)(=O)c2ccc(OC/C(=C\F)CN)nc2)CC1 [Example 28]
IC50 (MAO-A; IC50, read-out: MAO-A): > 50000 nM | IC50 ([1]; read-out: AOC3 IC50): 13 nM

NC/C(=C/F)COc1ccc(S(=O)(=O)N2CC[C@H](C(=O)N3CCOCC3)C2)cn1 [Example 21]
IC50 (MAO-A; IC50, read-out: MAO-A): > 50000 nM | IC50 ([1]; read-out: AOC3 IC50): 28 nM

NC/C(=C/F)COc1ccc(S(=O)(=O)N2CCC(CC(=O)NCCO)CC2)cn1 [Example 52]
IC50 (MAO-A; IC50, read-out: MAO-A): 25900 nM | IC50 ([1]; read-out: AOC3 IC50): 17 nM

CN(C)C(=O)CC1CCN(S(=O)(=O)c2ccc(OC/C(=C\F)CN)nc2)CC1 [Example 19]
IC50 (MAO-A; IC50, read-out: MAO-A): > 50000 nM | IC50 ([1]; read-out: AOC3 IC50): 9 nM

COC1CN(S(=O)(=O)c2ccc(OC/C(=C\F)CN)nc2)C1 [Example 33]
IC50 (MAO-A; IC50, read-out: MAO-A): 40500 nM | IC50 (MAO-A; [2]): 40500 nM | IC50 ([1]; read-out: AOC3 IC50): 3 nM

CC(C)(O)CNC(=O)[C@H]1CCN(S(=O)(=O)c2ccc(OC/C(=C\F)CN)nc2)C1 [Example 2]
IC50 (MAO-A; IC50, read-out: MAO-A): > 50000 nM | IC50 ([1]; read-out: AOC3 IC50): 40 nM

COCCNC(=O)CC1CCN(S(=O)(=O)c2ccc(OC/C(=C\F)CN)nc2)CC1 [Example 54]
IC50 (MAO-A; IC50, read-out: MAO-A): 26900 nM | IC50 ([1]; read-out: AOC3 IC50): 19 nM

CNC(=O)[C@@H]1CCCN1S(=O)(=O)c1ccc(OC/C(=C\F)CN)nc1 [Example 8]
IC50 (MAO-A; IC50, read-out: MAO-A): > 50000 nM | IC50 ([1]; read-out: AOC3 IC50): 48 nM

NC/C(=C/F)COc1ccc(S(=O)(=O)N2CC(C(N)=O)C2)cn1 [Example 20]
IC50 (MAO-A; IC50, read-out: MAO-A): > 50000 nM | IC50 ([1]; read-out: AOC3 IC50): 6 nM

CC1(C(=O)NCCF)CCN(S(=O)(=O)c2ccc(OC/C(=C\F)CN)nc2)CC1 [Example 53]
IC50 (MAO-A; IC50, read-out: MAO-A): > 50000 nM | IC50 ([1]; read-out: AOC3 IC50): 17 nM

CNC(=O)[C@H]1CCN(S(=O)(=O)c2ccc(OC/C(=C\F)CN)nc2)C1 [Example 11]
IC50 (MAO-A; IC50, read-out: MAO-A): > 50000 nM

CC(=O)N[C@@H]1CCCN(S(=O)(=O)c2ccc(OC/C(=C\F)CN)nc2)C1 [Example 24]
IC50 (MAO-A; IC50, read-out: MAO-A): > 50000 nM

CC(=O)N[C@H]1CCCN(S(=O)(=O)c2ccc(OC/C(=C\F)CN)nc2)C1 [Example 6]
IC50 (MAO-A; IC50, read-out: MAO-A): > 50000 nM
